What all share (type): in vivo
Series [1] concerns barnyard grass. Put plainly: Test Example 2: weedkilling efficacy, growth period weed treatment in the submerged state; A: barnyard grass. As to the method: (§1) Weedkilling efficacy test on growth period weed treatment in the submerged state
(§2) Alluvial soil was introduced into 1/10,000 Are Wagner pots, and 4 cm depth submerged conditions were created by addition of water and mixing. Seeds of barnyard grass, bulrush and oval-leafed pondweed were mixed and sown into the aforesaid cups, and the plants were grown by placing in a greenhouse at 25 to 30° C. When the barnyard grass, bulrush and oval-leafed pondweed had reached the 1-2 leaf stage, emulsions of compounds of the present invention prepared according to compounding example 2 were diluted with water to give the specified dosages and applied onto the water surface. 3 weeks after the pesticide treatment the effect on each type of plant was investigated on the basis of the assessment criteria of test example 1.
(§3) A: barnyard grass, B: bulrush, C: oval-leafed pondweed, D: crabgrass, E: green foxtail, F: barnyard grass, G: wild oat, H: black-grass, I: Italian ryegrass, J: common wind-grass, K: Indian mallow, L: redroot pigweed, M: fig-leafed goosefoot, N: chickweed, O: catchweed, p: birds-eye speedwell, a: transplanted rice, b: directly sown rice, c: corn, d: soybean, e: wheat, f: beet, g: rapeseed
(§4) Further, pesticide dosage (g/ha) indicates the concentration regulated such that treatment was with only the stated number of grams (g), when calculated per hectare (ha).

For series [2], the system named is oval-leafed pondweed. The experiment in a line: Test Example 1: weedkilling efficacy, preemergent weed treatment in the submerged state; C: oval-leafed pondweed.
Source text: (§5) Weedkilling efficacy test on preemergent weed treatment in the submerged state
(§6) Alluvial soil was introduced into 1/10,000 Are Wagner pots, and 4 cm depth submerged conditions were created by addition of water and mixing. Seeds of barnyard grass, bulrush and oval-leafed pondweed were mixed and sown into the aforesaid cups, then 2.5 leaf stage rice seedlings were transplanted. On the sowing day, emulsions of compounds of the present invention prepared according to compounding example 2 were diluted with water to give the specified dosages and applied onto the water surface. The plants were grown after placing the cups in a greenhouse at 25 to 30° C. 3 weeks after the pesticide treatment the effect on each type of plant was investigated on the basis of the following assessment criteria.
as §3, §4

The test system of series [3] is barnyard grass. The experiment in a line: Test Example 1: weedkilling efficacy, preemergent weed treatment in the submerged state; A: barnyard grass.
Source text: as §5, §6, §3, §4

In series [4] the test system is bulrush. Put plainly: Test Example 1: weedkilling efficacy, preemergent weed treatment in the submerged state; B: bulrush.
Source text: as §5, §6, §3, §4

Series [5] relates to transplanted rice. The experiment in a line: Test Example 1: preemergent weed treatment in the submerged state, effect on crop; a: transplanted rice.
Source text: as §5, §6, §3, §4

In series [6] the test system is bulrush. Put plainly: Test Example 2: weedkilling efficacy, growth period weed treatment in the submerged state; B: bulrush. As to the method: as §1, §2, §3, §4
The test system of series [7] is oval-leafed pondweed. Put plainly: Test Example 2: weedkilling efficacy, growth period weed treatment in the submerged state; C: oval-leafed pondweed. As to the method:
as §1, §2, §3, §4

The record followed here is patent US9738634B2, “Heterocyclic amide compound and herbicide” (SYNGENTA PARTICIPATIONS AG, priority 2013, dated 2017).

Regarding `Cc1ccc(N2COCN(C(C)(C)C(=O)Nc3cc(Cl)cc(F)n3)C2=O)cc1` [A-6-11], the “A (barnyard grass) weedkilling efficacy grade” value in series [1] (treatment dosage 320 g/ha) is 4 (weed kill ratio 70% or more, less than 90%). Further, the “C: oval-leafed pondweed, weed kill grade” value in series [2] (treatment dosage 320 g/ha) is reported as 5 (weed kill ratio 90% or more, (practically complete withering)). The “A: barnyard grass, weed kill grade” value in series [3] (treatment dosage 320 g/ha) is 5 (weed kill ratio 90% or more, (practically complete withering)). Further, in series [4] (treatment dosage 320 g/ha), the “B: bulrush, weed kill grade” value is given as 5 (weed kill ratio 90% or more, (practically complete withering)). Besides, in series [5] (treatment dosage 320 g/ha), the “a: transplanted rice, effect on crop grade” value (shortened to “a: transplanted rice, effect”) is recorded as 0 (weed kill ratio 5% or less (practically no effect)). For the same molecule, the “B (bulrush) weedkilling efficacy grade” value in series [6] (treatment dosage 320 g/ha) is recorded as 5 (weed kill ratio 90% or more, (practically complete withering)). The “C (oval-leafed pondweed) weedkilling efficacy grade” value in series [7] (treatment dosage 320 g/ha) was 5 (weed kill ratio 90% or more, (practically complete withering)).
With `Cc1cc(C)nc(NC(=O)C(C)(C)N2COCN(c3ccccc3)C2=O)c1` [A-2-56], in series [1] (treatment dosage 252 g/ha), the “A (barnyard grass) weedkilling efficacy grade” value is 4 (weed kill ratio 70% or more, less than 90%). For the same molecule, the “C: oval-leafed pondweed, weed kill grade” value in series [2] (treatment dosage 252 g/ha) is recorded as 5 (weed kill ratio 90% or more, (practically complete withering)). Further, the “A: barnyard grass, weed kill grade” value in series [3] (treatment dosage 252 g/ha) was 5 (weed kill ratio 90% or more, (practically complete withering)). In addition, the “B: bulrush, weed kill grade” value in series [4] (treatment dosage 252 g/ha) was 5 (weed kill ratio 90% or more, (practically complete withering)). Further, the “a: transplanted rice, effect” value in series [5] (treatment dosage 252 g/ha) is listed as 0 (weed kill ratio 5% or less (practically no effect)). The “B (bulrush) weedkilling efficacy grade” value in series [6] (treatment dosage 252 g/ha) is reported as 5 (weed kill ratio 90% or more, (practically complete withering)). Also, the “C (oval-leafed pondweed) weedkilling efficacy grade” value in series [7] (treatment dosage 252 g/ha) is on record as 3 (weed kill ratio 40% or more, less than 70%).
In the case of `Cn1ccc(NC(=O)C(C)(C)N2COCN(c3ccccc3)C2=O)n1` [A-1-03], in series [1] (treatment dosage 320 g/ha), the “A (barnyard grass) weedkilling efficacy grade” value was 0 (weed kill ratio 5% or less (practically no effect)). The “C: oval-leafed pondweed, weed kill grade” value in series [2] (treatment dosage 320 g/ha) is 2 (weed kill ratio 20% or more, less than 40%). Also, in series [3] (treatment dosage 320 g/ha), the “A: barnyard grass, weed kill grade” value is 0 (weed kill ratio 5% or less (practically no effect)). Besides, in series [4] (treatment dosage 320 g/ha), the “B: bulrush, weed kill grade” value is 5 (weed kill ratio 90% or more, (practically complete withering)). Further, in series [5] (treatment dosage 320 g/ha), the “a: transplanted rice, effect” value is recorded as 0 (weed kill ratio 5% or less (practically no effect)). The “B (bulrush) weedkilling efficacy grade” value in series [6] (treatment dosage 320 g/ha) is 2 (weed kill ratio 20% or more, less than 40%). For the same molecule, in series [7] (treatment dosage 320 g/ha), the “C (oval-leafed pondweed) weedkilling efficacy grade” value was 0 (weed kill ratio 5% or less (practically no effect)).
`CC(C)(C(=O)Nc1cccc(OC(F)F)n1)N1COCN(c2ccccc2)C1=O` [A-2-54]: the “A (barnyard grass) weedkilling efficacy grade” value in series [1] (treatment dosage 320 g/ha) was 3 (weed kill ratio 40% or more, less than 70%). Also, the “C: oval-leafed pondweed, weed kill grade” value in series [2] (treatment dosage 320 g/ha) is listed as 4 (weed kill ratio 70% or more, less than 90%). In series [3] (treatment dosage 320 g/ha), the “A: barnyard grass, weed kill grade” value was 5 (weed kill ratio 90% or more, (practically complete withering)). In addition, the “B: bulrush, weed kill grade” value in series [4] (treatment dosage 320 g/ha) is on record as 5 (weed kill ratio 90% or more, (practically complete withering)). For the same molecule, the “a: transplanted rice, effect” value in series [5] (treatment dosage 320 g/ha) is listed as 1 (weed kill ratio 5% or more, less than 20%). Also, the “B (bulrush) weedkilling efficacy grade” value in series [6] (treatment dosage 320 g/ha) was 4 (weed kill ratio 70% or more, less than 90%). The “C (oval-leafed pondweed) weedkilling efficacy grade” value in series [7] (treatment dosage 320 g/ha) is on record as 3 (weed kill ratio 40% or more, less than 70%).
Regarding `CC(C)(C(=O)Nc1cc(-c2ccsc2)ccn1)N1COCN(c2ccccc2)C1=O` [A-5-01], the “A (barnyard grass) weedkilling efficacy grade” value in series [1] (treatment dosage 320 g/ha) is given as 4 (weed kill ratio 70% or more, less than 90%). In addition, the “C: oval-leafed pondweed, weed kill grade” value in series [2] (treatment dosage 320 g/ha) was 5 (weed kill ratio 90% or more, (practically complete withering)). For the same molecule, the “A: barnyard grass, weed kill grade” value in series [3] (treatment dosage 320 g/ha) was 4 (weed kill ratio 70% or more, less than 90%). Also, the “B: bulrush, weed kill grade” value in series [4] (treatment dosage 320 g/ha) is reported as 5 (weed kill ratio 90% or more, (practically complete withering)). The “a: transplanted rice, effect” value in series [5] (treatment dosage 320 g/ha) was 0 (weed kill ratio 5% or less (practically no effect)). In addition, in series [6] (treatment dosage 320 g/ha), the “B (bulrush) weedkilling efficacy grade” value is on record as 4 (weed kill ratio 70% or more, less than 90%). Further, the “C (oval-leafed pondweed) weedkilling efficacy grade” value in series [7] (treatment dosage 320 g/ha) is 4 (weed kill ratio 70% or more, less than 90%).
